Key:
Assay type in all cases: in vivo
[1] = test system: ryegrass, Italian (Italian ryegrass, Lolium multiflorum); assay: Test A preemergence
Text: (§1) Seeds of plant species selected from barnyardgrass (Echinochloa crus-galli), Kochia (Kochia scoparia), ragweed (common ragweed, Ambrosia elatior), ryegrass, Italian (Italian ryegrass, Lolium multiflorum), crabgrass, large (Digitaria sanguinalis), giant foxtail (Setaria faberii), green foxtail (Setaria viridis), morningglory (Ipomoea spp.), pigweed (Amaranthus retroflexus), velvetleaf (Abutilon theophrasti), wheat (Triticum aestivum), and corn (Zea mays) were planted into a blend of loam soil and sand and treated preemergence with a directed soil spray using test chemicals formulated in anon-phytotoxic solvent mixture which included a surfactant.
(§2) At the same time, plants selected from these crop and weed species and also blackgrass (Alopecurus myosuroides), and Galium (catchweed bedstraw, Galium aparine) were planted in pots containing the same blend of loam soil and sand and treated with postemergence applications of test chemicals formulated in the same manner. Plants ranged in height from 2 to 10 cm and were in the one- to two-leaf stage for the postemergence treatment. Treated plants and untreated controls were maintained in a greenhouse for approximately 10 d, after which time all treated plants were compared to untreated controls and visually evaluated for injury. Plant response ratings, summarized in Table A, are based on a 0 to 100 scale where 0 is no effect and 100 is complete control. A dash (-) response means no test result.

[2] = test system: pigweed (Amaranthus retroflexus); assay: Test A preemergence
Text: as §1, §2

[3] = test system: ragweed (common ragweed, Ambrosia elatior); assay: Test A preemergence
Text: as §1, §2

[4] = test system: barnyardgrass (Echinochloa crus-galli); assay: Test A preemergence
Text: as §1, §2

[5] = test system: giant foxtail (Setaria faberii); assay: Test A preemergence
Text: as §1, §2

Kochia (Kochia scoparia) [6] = assay: Test A preemergence
Text: as §1, §2

rice (Oryra sativa) = assay: Test B flooded paddy test; details: Flood, 250 g ai/ha; 0 to 100 scale where 0 is no effect and 100 is complete control; 13 to 15 d
Method: (§3) Plant species in the flooded paddy test selected from rice (Oryra sativa), sedge, umbrella (small-flower umbrella sedge, Cyperus difformis), ducksalad (Heteranthera limosa), and barnyardgrass (Echinochloa crus-galli) were grown to the 2-leaf stage for testing. At time of treatment, test pots were flooded to 3 cm above the soil surface, treated by application of test compounds directly to the paddy water, and then maintained at that water depth for the duration of the test. Treated plants and controls were maintained in a greenhouse for 13 to 15 d, after which time all species were compared to controls and visually evaluated. Plant response ratings, summarized in Table B, are based on a scale of 0 to 100 where 0 is no effect and 100 is complete control. A dash (-) response means no test result.

[7] = test system: sedge, umbrella (small-flower umbrella sedge, Cyperus difformis); assay: Test B flooded paddy test; details: Flood, 250 g ai/ha; 0 to 100 scale where 0 is no effect and 100 is complete control; 13 to 15 d
Method: as §3

[8] = test system: ducksalad (Heteranthera limosa); assay: Test B flooded paddy test; details: Flood, 250 g ai/ha; 0 to 100 scale where 0 is no effect and 100 is complete control; 13 to 15 d
Method: as §3

[9] = test system: barnyardgrass (Echinochloa crus-galli); assay: Test B flooded paddy test; details: Flood, 250 g ai/ha; 0 to 100 scale where 0 is no effect and 100 is complete control; 13 to 15 d
Method: as §3

[10] = test system: wheat (Triticum aestivum); assay: Test A postemergence
Text: as §1, §2

[11] = test system: ryegrass, Italian (Italian ryegrass, Lolium multiflorum); assay: Test A postemergence
Text: as §1, §2

[12] = test system: blackgrass (Alopecurus myosuroides); assay: Test A postemergence
Text: as §1, §2

[13] = test system: pigweed (Amaranthus retroflexus); assay: Test A postemergence
Text: as §1, §2

[14] = test system: Galium (catchweed bedstraw, Galium aparine); assay: Test A postemergence
Text: as §1, §2

[15] = test system: ragweed (common ragweed, Ambrosia elatior); assay: Test A postemergence
Text: as §1, §2

corn (Zea mays) = assay: Test A postemergence
Text: as §1, §2

[16] = test system: barnyardgrass (Echinochloa crus-galli); assay: Test A postemergence
Text: as §1, §2

[17] = test system: giant foxtail (Setaria faberii); assay: Test A postemergence
Text: as §1, §2

Kochia (Kochia scoparia) [18] = assay: Test A postemergence
Text: as §1, §2

[19] = 125 g ai/ha, preemergence, 0 to 100 scale (0 no effect, 100 complete control)
[20] = Preemergence, 500 g ai/ha, 0 is no effect, 100 is complete control
[21] = 500 g ai/ha, postemergence, 0 to 100 scale, 0 no effect, 100 complete control
[22] = Postemergence, 125 g ai/ha, visual injury, 0 to 100 scale (0 no effect, 100 complete control), approx. 10 d

## O=C1NCC(c2cccc(F)c2)C1C(=O)Nc1ccccc1C(F)(F)F (racemic) [Compound 376]
[1]; [19]
  Plant response rating, Ryegrass, Italian: 0
[1]; [20]
  Ryegrass, Italian plant response rating (0 to 100 scale): 20
[2]; [19]
  Plant response rating, Pigweed: 0
[2]; [20]
  Pigweed plant response rating (0 to 100 scale): 0
[3]; [19]
  Plant response rating, Ragweed: 0
[3]; [20]
  Ragweed plant response rating (0 to 100 scale): 0
[4]; [19]
  Plant response rating, Barnyardgrass: 90
[4]; [20]
  Barnyardgrass plant response rating (0 to 100 scale): 90
[5]; [19]
  Plant response rating, Foxtail, Giant: 90
[5]; [20]
  Foxtail, Giant plant response rating (0 to 100 scale): 90
Kochia (Kochia scoparia) [6]; [19]
  Plant response rating, Kochia: 0
Kochia (Kochia scoparia) [6]; [20]
  Kochia plant response rating (0 to 100 scale): 0
Rice (Oryra sativa)
  Plant response rating, Rice: 0
[7]
  Plant response rating, Sedge, Umbrella: 0
[8]
  Plant response rating, Ducksalad: 100
[9]
  Plant response rating, Barnyardgrass: 70
[10]; [21]
  Plant response rating, Wheat: 0
[10]; [22]
  Plant response rating, Wheat: 0
[11]; [21]
  Plant response rating, Ryegrass, Italian: 20
[11]; [22]
  Plant response rating, Ryegrass, Italian: 0
[12]; [21]
  Plant response rating, Blackgrass: 40
[12]; [22]
  Plant response rating, Blackgrass: 0
[13]; [21]
  Plant response rating, Pigweed: 0
[13]; [22]
  Plant response rating, Pigweed: 0
[14]; [21]
  Plant response rating, Galium: 30
[14]; [22]
  Plant response rating, Galium: 30
[15]; [21]
  Plant response rating, Ragweed: 20
[15]; [22]
  Plant response rating, Ragweed: 0
Corn (Zea mays); [21]
  Plant response rating, Corn: 30
Corn (Zea mays); [22]
  Plant response rating, Corn: 0
[16]; [21]
  Plant response rating, Barnyardgrass: 90
[16]; [22]
  Plant response rating, Barnyardgrass: 90
[17]; [21]
  Plant response rating, Foxtail, Giant: 90
[17]; [22]
  Plant response rating, Foxtail, Giant: 90
Kochia (Kochia scoparia) [18]; [21]
  Plant response rating, Kochia: 20
Kochia (Kochia scoparia) [18]; [22]
  Plant response rating, Kochia: 0

Source: patent publication US12077503B2, “Substituted cyclic amides and their use as herbicides” (FMC CORPORATION, priority 2015, dated 2024)
